Test results published in PubChem BioAssay (NCI).
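Compound exposure: 48 hours, 5 concentrations, 96-well plates. GI50: concentration for 50% inhibition of growth. TGI is the concentration that stops growth completely.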

How the values were obtained:
Test in all cases: DTP human tumour cell line panel, 48 h
MDA-MB-435 = tested on: MDA-MB-435
NCI-H460 lung = tested on: NCI-H460 lung
NCI/ADR-RES ovarian = tested on: NCI/ADR-RES ovarian
OVCAR-4 ovarian = tested on: OVCAR-4 ovarian
SW-620 colon = tested on: SW-620 colon
SF-539 CNS = tested on: SF-539 CNS
SK-MEL-28 melanoma = tested on: SK-MEL-28 melanoma
MDA-MB-231 breast = tested on: MDA-MB-231 breast
LOX IMVI melanoma = tested on: LOX IMVI melanoma
BT-549 breast = tested on: BT-549 breast
U251 CNS = tested on: U251 CNS
M14 melanoma = tested on: M14 melanoma
RXF 393 renal = tested on: RXF 393 renal
786-0 renal = tested on: 786-0 renal
HCT-15 colon = tested on: HCT-15 colon
A498 renal = tested on: A498 renal
DU-145 prostate = tested on: DU-145 prostate
CCRF-CEM leukemia = tested on: CCRF-CEM leukemia
HL-60(TB) leukemia = tested on: HL-60(TB) leukemia
UACC-62 melanoma = tested on: UACC-62 melanoma
NCI-H23 lung = tested on: NCI-H23 lung
RPMI-8226 leukemia = tested on: RPMI-8226 leukemia
PC-3 prostate = tested on: PC-3 prostate
IGROV1 ovarian = tested on: IGROV1 ovarian
ACHN renal = tested on: ACHN renal
OVCAR-8 ovarian = tested on: OVCAR-8 ovarian
TK-10 renal = tested on: TK-10 renal
A549 NSCLC = tested on: A549 NSCLC
MALME-3M melanoma = tested on: MALME-3M melanoma
UO-31 renal = tested on: UO-31 renal
MOLT-4 leukemia = tested on: MOLT-4 leukemia
SF-295 CNS = tested on: SF-295 CNS
K-562 leukemia = tested on: K-562 leukemia
UACC-257 melanoma = tested on: UACC-257 melanoma
HOP-92 NSCLC = tested on: HOP-92 NSCLC
SR leukemia = tested on: SR leukemia
SF-268 CNS = tested on: SF-268 CNS
SNB-75 CNS = tested on: SNB-75 CNS
OVCAR-3 ovarian = tested on: OVCAR-3 ovarian
COLO 205 colon = tested on: COLO 205 colon
EKVX NSCLC = tested on: EKVX NSCLC
SNB-19 CNS = tested on: SNB-19 CNS
HS 578T breast = tested on: HS 578T breast
SK-OV-3 ovarian = tested on: SK-OV-3 ovarian
KM12 colon = tested on: KM12 colon
HT29 colon = tested on: HT29 colon
SN12C renal = tested on: SN12C renal
SK-MEL-2 melanoma = tested on: SK-MEL-2 melanoma
NCI-H522 lung = tested on: NCI-H522 lung
SK-MEL-5 melanoma = tested on: SK-MEL-5 melanoma
HOP-62 NSCLC = tested on: HOP-62 NSCLC
OVCAR-5 ovarian = tested on: OVCAR-5 ovarian
NCI-H226 lung = tested on: NCI-H226 lung
T-47D breast = tested on: T-47D breast
HCC-2998 colon = tested on: HCC-2998 colon

`O=C(C[n+]1cccc2cc(Cl)ccc21)c1ccc2c(c1)CCCC2` showed a GI50 (MDA-MB-435) of 1610 nM, a TGI (MDA-MB-435) of 3380 nM and a GI50 (NCI-H460 lung) of 1860 nM. It also gave a TGI (NCI-H460 lung) of 3680 nM, a GI50 (NCI/ADR-RES ovarian) of 19900 nM and a TGI (NCI/ADR-RES ovarian) of 67300 nM. The GI50 (OVCAR-4 ovarian) was 982 nM, the TGI (OVCAR-4 ovarian) was 2990 nM and the GI50 (SW-620 colon) was 2030 nM. The TGI (SW-620 colon) was 4970 nM, the GI50 (SF-539 CNS) was 1400 nM and the TGI (SF-539 CNS) was 2850 nM. It also gave a GI50 (SK-MEL-28 melanoma) of 1620 nM, a TGI (SK-MEL-28 melanoma) of 3190 nM and a GI50 (MDA-MB-231 breast) of 1500 nM. It also gave a TGI (MDA-MB-231 breast) of 3250 nM, a GI50 (LOX IMVI melanoma) of 831 nM and a TGI (LOX IMVI melanoma) of 2240 nM. The GI50 (BT-549 breast) was 1110 nM, the TGI (BT-549 breast) was 2970 nM and the GI50 (U251 CNS) was 595 nM. For the same compound, the TGI (U251 CNS) was 1860 nM, the GI50 (M14 melanoma) was 1480 nM and the TGI (M14 melanoma) was 3200 nM. The GI50 (RXF 393 renal) was 1690 nM, the TGI (RXF 393 renal) was 3810 nM and the GI50 (786-0 renal) was 2010 nM. It also gave a TGI (786-0 renal) of 5250 nM, a GI50 (HCT-15 colon) of 11800 nM and a TGI (HCT-15 colon) of 31700 nM. For the same compound, the GI50 (A498 renal) was 3560 nM, the TGI (A498 renal) was 13300 nM and the GI50 (DU-145 prostate) was 1460 nM. It also gave a TGI (DU-145 prostate) of 3330 nM, a GI50 (CCRF-CEM leukemia) of 1590 nM and a TGI (CCRF-CEM leukemia) of 8740 nM. For the same compound, the GI50 (HL-60(TB) leukemia) was 882 nM, the TGI (HL-60(TB) leukemia) was 3950 nM and the GI50 (UACC-62 melanoma) was 1540 nM. For the same compound, the TGI (UACC-62 melanoma) was 3490 nM, the GI50 (NCI-H23 lung) was 1140 nM and the TGI (NCI-H23 lung) was 4440 nM. It also gave a GI50 (RPMI-8226 leukemia) of 910 nM, a TGI (RPMI-8226 leukemia) of 4090 nM and a GI50 (PC-3 prostate) of 933 nM. It also gave a TGI (PC-3 prostate) of 3610 nM, a GI50 (IGROV1 ovarian) of 1520 nM and a TGI (IGROV1 ovarian) of 4080 nM. For the same compound, the GI50 (ACHN renal) was 4910 nM, the TGI (ACHN renal) was 18500 nM and the GI50 (OVCAR-8 ovarian) was 2980 nM. It also gave a TGI (OVCAR-8 ovarian) of 11200 nM, a GI50 (TK-10 renal) of 2210 nM and a TGI (TK-10 renal) of 4650 nM. For the same compound, the GI50 (A549 NSCLC) was 3700 nM, the TGI (A549 NSCLC) was 13500 nM and the GI50 (MALME-3M melanoma) was 1200 nM. The TGI (MALME-3M melanoma) was 2630 nM, the GI50 (UO-31 renal) was 5710 nM and the TGI (UO-31 renal) was 20400 nM. For the same compound, the GI50 (MOLT-4 leukemia) was 1410 nM, the TGI (MOLT-4 leukemia) was 4500 nM and the GI50 (SF-295 CNS) was 1770 nM. The TGI (SF-295 CNS) was 4220 nM, the GI50 (K-562 leukemia) was 1320 nM and the TGI (K-562 leukemia) was 10300 nM. The GI50 (UACC-257 melanoma) was 1500 nM, the TGI (UACC-257 melanoma) was 3580 nM and the GI50 (HOP-92 NSCLC) was 1580 nM. It also gave a TGI (HOP-92 NSCLC) of 3220 nM, a GI50 (SR leukemia) of 758 nM and a TGI (SR leukemia) of 6180 nM. For the same compound, the GI50 (SF-268 CNS) was 1440 nM, the TGI (SF-268 CNS) was 3290 nM and the GI50 (SNB-75 CNS) was 1350 nM. It also gave a TGI (SNB-75 CNS) of 3200 nM, a GI50 (OVCAR-3 ovarian) of 875 nM and a TGI (OVCAR-3 ovarian) of 2260 nM. It also gave a GI50 (COLO 205 colon) of 1500 nM, a TGI (COLO 205 colon) of 3010 nM and a GI50 (EKVX NSCLC) of 2460 nM. For the same compound, the TGI (EKVX NSCLC) was 11300 nM, the GI50 (SNB-19 CNS) was 1120 nM and the TGI (SNB-19 CNS) was 2650 nM. It also gave a GI50 (HS 578T breast) of 2030 nM, a TGI (HS 578T breast) of 5430 nM and a GI50 (SK-OV-3 ovarian) of 1720 nM. The TGI (SK-OV-3 ovarian) was 6940 nM, the GI50 (KM12 colon) was 1460 nM and the TGI (KM12 colon) was 3360 nM. The GI50 (HT29 colon) was 1660 nM, the TGI (HT29 colon) was 3440 nM and the GI50 (SN12C renal) was 1270 nM. For the same compound, the TGI (SN12C renal) was 3040 nM, the GI50 (SK-MEL-2 melanoma) was 1680 nM and the TGI (SK-MEL-2 melanoma) was 3410 nM. It also gave a GI50 (NCI-H522 lung) of 1510 nM, a TGI (NCI-H522 lung) of 4330 nM and a GI50 (SK-MEL-5 melanoma) of 1260 nM. For the same compound, the TGI (SK-MEL-5 melanoma) was 2550 nM, the GI50 (HOP-62 NSCLC) was 1650 nM and the TGI (HOP-62 NSCLC) was 3850 nM. The GI50 (OVCAR-5 ovarian) was 1840 nM, the TGI (OVCAR-5 ovarian) was 4540 nM and the GI50 (NCI-H226 lung) was 1480 nM. It also gave a TGI (NCI-H226 lung) of 3480 nM, a GI50 (T-47D breast) of 1090 nM and a TGI (T-47D breast) of 2710 nM. For the same compound, the GI50 (HCC-2998 colon) was 1600 nM and the TGI (HCC-2998 colon) was 3280 nM.
